Assays:
[1] = target: Motilin receptor (Homo sapiens, UniProt O43193)
[2] = target: Delta-type opioid receptor (Homo sapiens, UniProt P41143)
[3] = target: Kappa-type opioid receptor (Homo sapiens, UniProt P41145)
[4] = target: Cannabinoid receptor 1 (Homo sapiens, UniProt P21554); type: functional, cell-based
[5] = target: D(1A) dopamine receptor (Homo sapiens, UniProt P21728); type: functional, cell-based
[6] = target: T1, Progesterone receptor (Homo sapiens, UniProt P06401); type: functional
T1 sequence (P06401 whole entry): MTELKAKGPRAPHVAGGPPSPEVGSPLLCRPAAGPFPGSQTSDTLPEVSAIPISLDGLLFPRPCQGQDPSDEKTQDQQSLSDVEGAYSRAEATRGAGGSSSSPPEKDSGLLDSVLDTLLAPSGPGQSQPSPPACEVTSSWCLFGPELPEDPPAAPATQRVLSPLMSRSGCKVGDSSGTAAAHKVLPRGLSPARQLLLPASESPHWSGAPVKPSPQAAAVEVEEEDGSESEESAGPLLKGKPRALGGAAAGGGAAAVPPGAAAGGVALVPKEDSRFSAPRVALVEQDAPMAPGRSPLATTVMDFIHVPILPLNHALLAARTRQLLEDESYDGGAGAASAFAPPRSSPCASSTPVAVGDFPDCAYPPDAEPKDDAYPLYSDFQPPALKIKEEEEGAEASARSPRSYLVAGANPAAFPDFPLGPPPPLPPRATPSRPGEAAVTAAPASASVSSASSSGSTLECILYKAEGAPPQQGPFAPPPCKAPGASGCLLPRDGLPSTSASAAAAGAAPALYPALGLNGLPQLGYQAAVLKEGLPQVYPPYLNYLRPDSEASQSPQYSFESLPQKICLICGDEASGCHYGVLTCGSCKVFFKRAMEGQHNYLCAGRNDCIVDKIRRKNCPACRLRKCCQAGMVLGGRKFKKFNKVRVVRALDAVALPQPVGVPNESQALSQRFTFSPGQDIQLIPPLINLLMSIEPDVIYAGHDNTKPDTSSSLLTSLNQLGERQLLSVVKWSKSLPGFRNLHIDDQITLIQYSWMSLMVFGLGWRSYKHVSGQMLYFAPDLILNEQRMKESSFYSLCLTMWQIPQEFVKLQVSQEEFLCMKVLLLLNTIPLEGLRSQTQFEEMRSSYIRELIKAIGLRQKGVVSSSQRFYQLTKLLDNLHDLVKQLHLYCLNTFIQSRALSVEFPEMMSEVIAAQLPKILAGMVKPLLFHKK

[7] = target: T2, Prostaglandin G/H synthase 1 (Rattus norvegicus, UniProt Q63921); type: functional
T2 sequence (Q63921 whole entry): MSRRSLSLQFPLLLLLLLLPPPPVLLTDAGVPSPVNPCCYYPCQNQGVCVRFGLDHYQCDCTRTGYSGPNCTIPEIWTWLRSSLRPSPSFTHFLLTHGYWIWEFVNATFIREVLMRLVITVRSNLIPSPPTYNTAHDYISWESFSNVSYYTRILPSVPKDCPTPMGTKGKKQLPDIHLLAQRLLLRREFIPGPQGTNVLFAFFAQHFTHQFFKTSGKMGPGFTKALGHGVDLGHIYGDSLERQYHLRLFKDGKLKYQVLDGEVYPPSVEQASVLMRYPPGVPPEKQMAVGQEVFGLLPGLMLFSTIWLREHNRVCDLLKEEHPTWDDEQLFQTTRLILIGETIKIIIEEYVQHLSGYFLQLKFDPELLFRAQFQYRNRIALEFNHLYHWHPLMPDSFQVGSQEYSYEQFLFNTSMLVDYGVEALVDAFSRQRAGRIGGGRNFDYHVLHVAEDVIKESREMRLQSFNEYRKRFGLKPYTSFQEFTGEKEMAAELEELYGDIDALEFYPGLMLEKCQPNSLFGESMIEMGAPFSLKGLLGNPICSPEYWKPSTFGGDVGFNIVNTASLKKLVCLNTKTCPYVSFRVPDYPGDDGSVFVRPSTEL

[8] = target: Sodium-dependent noradrenaline transporter (Homo sapiens, UniProt P23975)
[9] = target: Gamma-aminobutyric acid receptor subunit alpha-1 (Rattus norvegicus, UniProt P62813); type: functional
[10] = target: T3, Alpha-2C adrenergic receptor (Homo sapiens, UniProt P18825); type: functional
T3 sequence (P18825 whole entry): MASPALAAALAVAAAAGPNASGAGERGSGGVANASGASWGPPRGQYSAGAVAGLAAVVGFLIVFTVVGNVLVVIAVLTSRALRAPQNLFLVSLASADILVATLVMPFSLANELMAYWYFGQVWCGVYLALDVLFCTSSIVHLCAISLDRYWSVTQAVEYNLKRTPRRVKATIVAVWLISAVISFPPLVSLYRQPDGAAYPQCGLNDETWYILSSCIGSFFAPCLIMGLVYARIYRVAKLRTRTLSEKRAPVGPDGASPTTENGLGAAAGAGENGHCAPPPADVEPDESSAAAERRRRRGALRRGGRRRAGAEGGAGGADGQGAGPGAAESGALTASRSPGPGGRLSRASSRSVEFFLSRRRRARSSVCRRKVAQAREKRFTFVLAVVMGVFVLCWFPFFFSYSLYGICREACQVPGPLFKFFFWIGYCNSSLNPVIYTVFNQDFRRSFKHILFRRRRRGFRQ

[11] = target: Glutamate receptor ionotropic, NMDA 1 (Rattus norvegicus, UniProt P35439)
[12] = target: T4, Cholecystokinin receptor type A (Homo sapiens, UniProt P32238)
T4 sequence (P32238 whole entry): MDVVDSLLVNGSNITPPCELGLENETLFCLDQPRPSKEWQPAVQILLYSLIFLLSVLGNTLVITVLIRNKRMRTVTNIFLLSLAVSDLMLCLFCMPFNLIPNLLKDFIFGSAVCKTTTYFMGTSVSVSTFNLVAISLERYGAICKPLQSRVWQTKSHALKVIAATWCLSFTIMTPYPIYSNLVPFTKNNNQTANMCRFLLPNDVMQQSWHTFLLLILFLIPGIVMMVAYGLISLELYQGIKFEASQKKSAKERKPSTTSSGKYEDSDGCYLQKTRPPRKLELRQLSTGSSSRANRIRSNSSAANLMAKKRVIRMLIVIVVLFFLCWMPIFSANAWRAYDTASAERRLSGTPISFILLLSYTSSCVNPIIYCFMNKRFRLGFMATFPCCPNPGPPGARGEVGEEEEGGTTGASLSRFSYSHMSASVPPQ
Further: assay procedure not described here.

Chain of Motilin receptor (O43193 whole entry): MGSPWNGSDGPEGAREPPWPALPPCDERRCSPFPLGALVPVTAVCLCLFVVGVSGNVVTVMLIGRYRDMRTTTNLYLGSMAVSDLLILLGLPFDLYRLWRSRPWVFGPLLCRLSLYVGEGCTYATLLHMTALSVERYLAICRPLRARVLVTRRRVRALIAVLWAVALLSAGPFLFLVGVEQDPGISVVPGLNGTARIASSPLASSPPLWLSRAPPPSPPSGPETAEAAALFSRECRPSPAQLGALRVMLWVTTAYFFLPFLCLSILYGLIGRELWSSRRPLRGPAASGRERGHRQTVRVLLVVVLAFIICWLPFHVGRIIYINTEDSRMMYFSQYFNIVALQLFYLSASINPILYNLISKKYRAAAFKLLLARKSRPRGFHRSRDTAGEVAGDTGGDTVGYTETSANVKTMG
Chain of Gamma-aminobutyric acid receptor subunit alpha-1 (P62813 whole entry): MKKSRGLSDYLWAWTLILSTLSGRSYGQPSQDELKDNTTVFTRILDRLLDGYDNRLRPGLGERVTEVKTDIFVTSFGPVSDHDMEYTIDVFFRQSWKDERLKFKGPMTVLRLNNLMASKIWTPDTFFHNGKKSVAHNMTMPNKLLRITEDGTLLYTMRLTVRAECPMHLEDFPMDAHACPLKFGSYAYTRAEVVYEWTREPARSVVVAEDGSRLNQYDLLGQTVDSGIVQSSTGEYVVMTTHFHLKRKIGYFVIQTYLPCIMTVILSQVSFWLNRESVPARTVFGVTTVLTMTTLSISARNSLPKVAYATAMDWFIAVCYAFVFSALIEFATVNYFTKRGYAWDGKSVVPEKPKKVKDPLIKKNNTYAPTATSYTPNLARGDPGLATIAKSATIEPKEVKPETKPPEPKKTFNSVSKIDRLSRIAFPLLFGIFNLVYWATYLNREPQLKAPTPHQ
Chain of Sodium-dependent noradrenaline transporter (P23975 whole entry): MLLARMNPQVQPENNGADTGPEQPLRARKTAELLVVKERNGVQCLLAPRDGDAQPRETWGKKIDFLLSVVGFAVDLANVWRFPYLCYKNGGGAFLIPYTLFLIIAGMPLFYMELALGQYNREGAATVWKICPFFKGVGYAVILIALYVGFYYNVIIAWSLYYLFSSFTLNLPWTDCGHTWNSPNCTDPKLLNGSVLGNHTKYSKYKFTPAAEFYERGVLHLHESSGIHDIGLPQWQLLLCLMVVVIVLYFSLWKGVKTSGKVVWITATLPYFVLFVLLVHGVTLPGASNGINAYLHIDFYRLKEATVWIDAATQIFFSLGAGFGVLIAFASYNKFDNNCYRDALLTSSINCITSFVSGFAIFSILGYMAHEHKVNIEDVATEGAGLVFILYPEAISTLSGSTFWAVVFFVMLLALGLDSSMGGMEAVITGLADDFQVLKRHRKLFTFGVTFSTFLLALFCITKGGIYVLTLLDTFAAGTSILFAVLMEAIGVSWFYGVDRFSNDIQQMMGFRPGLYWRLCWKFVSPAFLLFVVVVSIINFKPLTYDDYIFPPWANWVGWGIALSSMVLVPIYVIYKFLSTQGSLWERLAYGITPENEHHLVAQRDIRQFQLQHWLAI
Chain of D(1A) dopamine receptor (P21728 whole entry): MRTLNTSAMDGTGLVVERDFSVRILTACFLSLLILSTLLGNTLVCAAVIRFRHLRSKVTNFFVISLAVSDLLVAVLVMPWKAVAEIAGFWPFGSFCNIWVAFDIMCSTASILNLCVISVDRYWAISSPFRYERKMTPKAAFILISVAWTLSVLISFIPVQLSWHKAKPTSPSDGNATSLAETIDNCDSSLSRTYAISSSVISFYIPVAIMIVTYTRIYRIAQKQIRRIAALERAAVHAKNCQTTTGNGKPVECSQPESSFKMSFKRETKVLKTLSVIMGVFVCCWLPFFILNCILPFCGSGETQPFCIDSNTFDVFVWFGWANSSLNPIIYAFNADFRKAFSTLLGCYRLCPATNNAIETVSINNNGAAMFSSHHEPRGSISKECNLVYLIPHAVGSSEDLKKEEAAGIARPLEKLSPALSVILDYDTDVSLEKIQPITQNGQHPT
Chain of Kappa-type opioid receptor (P41145 whole entry): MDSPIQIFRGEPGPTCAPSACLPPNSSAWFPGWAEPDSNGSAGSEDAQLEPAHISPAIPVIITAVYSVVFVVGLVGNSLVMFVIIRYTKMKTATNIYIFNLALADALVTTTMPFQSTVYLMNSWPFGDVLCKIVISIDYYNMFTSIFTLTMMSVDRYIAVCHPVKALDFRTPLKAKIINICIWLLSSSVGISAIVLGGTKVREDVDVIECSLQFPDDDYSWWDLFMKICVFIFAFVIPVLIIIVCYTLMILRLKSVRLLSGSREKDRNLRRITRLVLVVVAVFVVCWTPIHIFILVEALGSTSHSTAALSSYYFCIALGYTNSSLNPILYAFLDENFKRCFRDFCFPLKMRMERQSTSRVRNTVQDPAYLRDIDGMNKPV
Chain of Delta-type opioid receptor (P41143 whole entry): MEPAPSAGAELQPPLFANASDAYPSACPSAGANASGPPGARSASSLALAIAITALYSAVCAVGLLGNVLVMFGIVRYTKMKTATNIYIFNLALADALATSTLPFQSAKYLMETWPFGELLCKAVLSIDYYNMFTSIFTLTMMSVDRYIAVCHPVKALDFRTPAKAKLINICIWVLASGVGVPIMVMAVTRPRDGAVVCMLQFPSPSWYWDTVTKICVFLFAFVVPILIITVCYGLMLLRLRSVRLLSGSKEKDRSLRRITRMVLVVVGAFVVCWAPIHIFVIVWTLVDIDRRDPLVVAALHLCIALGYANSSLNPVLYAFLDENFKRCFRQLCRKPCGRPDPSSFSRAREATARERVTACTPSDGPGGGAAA
Chain of Cannabinoid receptor 1 (P21554 whole entry): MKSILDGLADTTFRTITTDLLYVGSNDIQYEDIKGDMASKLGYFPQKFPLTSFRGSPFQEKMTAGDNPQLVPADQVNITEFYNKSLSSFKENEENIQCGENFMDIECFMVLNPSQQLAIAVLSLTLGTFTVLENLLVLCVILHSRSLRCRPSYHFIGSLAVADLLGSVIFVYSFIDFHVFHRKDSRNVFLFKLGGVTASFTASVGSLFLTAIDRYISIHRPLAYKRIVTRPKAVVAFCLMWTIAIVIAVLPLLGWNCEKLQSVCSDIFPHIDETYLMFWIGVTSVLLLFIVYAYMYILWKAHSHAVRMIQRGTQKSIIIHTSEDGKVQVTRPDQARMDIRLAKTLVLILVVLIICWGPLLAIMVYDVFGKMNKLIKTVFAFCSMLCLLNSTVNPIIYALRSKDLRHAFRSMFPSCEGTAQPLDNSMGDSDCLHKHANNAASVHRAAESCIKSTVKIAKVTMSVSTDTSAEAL

Row | SMILES | AC50 [1] [µM] | AC50 [2] [µM] | AC50 [3] [µM] | AC50 [4] [µM] | AC50 [5] [µM] | AC50 [6] [µM] | AC50 [7] [µM] | AC50 [8] [µM] | AC50 [9] [µM] | AC50 [10] [µM] | AC50 [11] [µM] | AC50 [12] [µM]
1 | Fc1ccc(C(c2ccccc2)(c2ccccc2F)n2ccnc2)cc1 (stereo not drawn) [FLUTRIMAZOLE] | 27 | > 30 | 0.93 | > 30 | > 30 | > 30 | > 30 | > 30 | > 30 | > 30 | > 30 | > 30
2 | COc1ccc2c3c1O[C@H]1[C@@H](O)CC[C@H]4[C@@H](C2)N(C)CC[C@@]341 [DIHYDROCODEINE] |  | > 30 | > 30 | > 30 | > 30 |  |  |  | > 30 | > 30 | > 30 | 
3 | Clc1ccccc1C(c1ccccc1)(c1ccccc1)n1ccnc1 [CLOTRIMAZOLE] |  | > 30 | 0.746 | > 30 |  |  |  | 19.9 | > 10 |  | > 10 | 
4 | Brc1c(NC2=NCCN2)ccc2nccnc12 [BRIMONIDINE] | > 30 | > 30 | > 30 | > 30 | > 30 | > 30 | > 30 | > 30 | > 30 |  | > 30 | > 30
5 | Cc1cc(C(C)(C)C)c(O)c(C)c1CC1=NCCN1 [OXYMETAZOLINE] |  | > 30 |  | > 30 | > 30 | > 30 | > 30 | > 30 | > 30 |  | > 30 | 
6 | Nc1nc(Cl)nc2c1ncn2[C@H]1C[C@H](O)[C@@H](CO)O1 [CLADRIBINE] | > 30 | > 30 | > 30 | > 30 | > 30 | > 30 | > 30 | > 30 |  | > 30 | > 30 | > 30
7 | O=C1C(O)=C([C@H]2CC[C@H](c3ccc(Cl)cc3)CC2)C(=O)c2ccccc21 [ATOVAQUONE] | > 30 | > 30 | > 30 |  | > 30 | > 30 | > 30 | > 30 | > 30 | > 30 | > 30 | > 30
8 | COc1cccc(C2(O)CCCCC2CN(C)C)c1 (stereo not drawn) [TRAMADOL] | > 10 | > 30 | > 10 | > 30 | > 10 |  | > 30 | > 10 | > 10 | > 10 | > 10 | > 30
9 | CC1(C)CCC(CN2CCN(c3ccc(C(=O)NS(=O)(=O)c4ccc(NCC5CCOCC5)c([N+](=O)[O-])c4)c(Oc4cnc5[nH]ccc5c4)c3)CC2)=C(c2ccc(Cl)cc2)C1 [VENETOCLAX] |  | > 30 |  |  | > 30 | > 30 | > 30 | 11 |  | 17 |  | 

Reference: ChEMBL document CHEMBL5291721, “A preclinical secondary pharmacology resource illuminates target-adverse drug reaction associations of marketed drugs” (Nat Commun, 2023)
